Experimental data taken from ChEMBL document CHEMBL1201862, “PubChem BioAssay data set” (2004).
“And” between values parts separate entries of the source, which are not always exact repeats. Equal values may be shown once. The source made the active and inactive calls.

How the values were obtained:
[1] = target: T1, Voltage-gated N-type calcium channel alpha-1B subunit/Amyloid beta A4 precursor protein-binding family A member 1 (Homo sapiens, UniProt Q00975+Q02410); assay type: protein assay
HEK293 [2] = assay: NOD2 signaling inhibitors in MDP-stimulated cells, cell-based, uHTS, luminescence (AID 2001); assay type: functional; conditions: Homo sapiens
HEK293 [3] = assay: cells; assay type: functional, cell-based; conditions: Homo sapiens
HEK293 [4] = assay: inhibition of NOD1-driven NF-kB reporter – cell-based, luminescence, uHTS, primary screen (AID 1578); assay type: functional; conditions: Homo sapiens
[5] = target: T2, Carboxy-terminal domain RNA polymerase II polypeptide A small phosphatase 1 (Homo sapiens, UniProt Q9GZU7); assay: CTDSP1 inhibitors, concentration-response, biochemical, absorbance readout, ultra-high-throughput screen actives (AID 540297); assay type: functional
T2 sequence (Q9GZU7 whole entry): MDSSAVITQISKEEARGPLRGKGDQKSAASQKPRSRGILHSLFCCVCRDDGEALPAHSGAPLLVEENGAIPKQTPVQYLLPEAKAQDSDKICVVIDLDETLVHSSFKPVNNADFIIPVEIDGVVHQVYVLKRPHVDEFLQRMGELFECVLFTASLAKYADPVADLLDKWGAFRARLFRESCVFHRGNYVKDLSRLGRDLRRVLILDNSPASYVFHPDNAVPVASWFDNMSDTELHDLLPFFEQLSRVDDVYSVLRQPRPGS

[6] = target: T1, Voltage-gated N-type calcium channel alpha-1B subunit/Amyloid beta A4 precursor protein-binding family A member 1; assay type: protein assay; remark: listed apart in the source
HEK293 [7] = assay: cells; assay type: functional, cell-based; conditions: Homo sapiens; remark: listed apart in the source
[8] = target: Nucleotide-binding oligomerization domain-containing protein 2 (Homo sapiens, UniProt Q9HC29); assay: inhibition of NOD2-driven NF-kB reporter – cell-based, luminescence, uHTS, HEK293 (AID 1566); assay type: functional
Tumor necrosis factor = Tumor necrosis factor (Homo sapiens, UniProt P01375); assay: analog potency on TNFa NF-kB signaling – cell-based, revised, SAR follow-up (AID 2337); assay type: functional
[9] = target: Nucleotide-binding oligomerization domain-containing protein 1 (Homo sapiens, UniProt Q9Y239); assay: blockers of NOD1 pathway activity – revised, SAR follow-up (AID 2333); assay type: functional
[10] = target: Glucose-6-phosphate 1-dehydrogenase (Homo sapiens, UniProt P11413); assay: inhibition of Homo sapiens G6PD, dose series – biochemical, fluorescence, selectivity assay for P. falciparum G6PD inhibitor project, dose response (AID 504792); assay type: functional
[11] = target: T3, Mannose-6-phosphate isomerase (Homo sapiens, UniProt P34949); assay: phosphomannose isomerase inhibition – biochemical, fluorescence intensity, confirmation (AID 1535)
T3 sequence (P34949 whole entry): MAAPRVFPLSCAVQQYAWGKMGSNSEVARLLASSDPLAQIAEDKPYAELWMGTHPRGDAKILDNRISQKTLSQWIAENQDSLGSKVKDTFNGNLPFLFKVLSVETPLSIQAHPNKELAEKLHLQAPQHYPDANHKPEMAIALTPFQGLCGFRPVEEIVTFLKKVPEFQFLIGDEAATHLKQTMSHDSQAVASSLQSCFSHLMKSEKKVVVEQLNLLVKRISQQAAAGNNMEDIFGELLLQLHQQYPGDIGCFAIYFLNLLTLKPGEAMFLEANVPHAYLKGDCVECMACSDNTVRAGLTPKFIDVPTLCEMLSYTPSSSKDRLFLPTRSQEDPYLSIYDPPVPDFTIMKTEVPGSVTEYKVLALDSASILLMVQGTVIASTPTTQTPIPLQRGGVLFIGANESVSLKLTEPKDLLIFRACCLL

[12] = target: Eukaryotic translation initiation factor 4E (Mus musculus, UniProt P63073); assay: blockers of eIF4G binding by eIF4E – biochemical, TR-FRET, dose response (AID 855); assay type: functional;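 note: potency for disrupting eIF4E binding to eIF4GI seen as loss of FRET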
[13] = target: DNA dC->dU-editing enzyme APOBEC-3G (Homo sapiens, UniProt Q9HC16); assay: Dose Response confirmation of small molecule APOBEC3G DNA Deaminase Inhibitors via a fluorescence-based single-stranded DNA deaminase assay. [Related pubchem assays (depositor defined):AID493012, AID493028]; assay type: functional
[14] = target: T4, Mitochondrial peptide methionine sulfoxide reductase (Bos taurus, UniProt P54149); assay: Absorbance-based biochemical high throughput dose response assay for activators of Methionine sulfoxide reductase A (MsrA).; assay type: functional
T4 sequence (P54149 whole entry): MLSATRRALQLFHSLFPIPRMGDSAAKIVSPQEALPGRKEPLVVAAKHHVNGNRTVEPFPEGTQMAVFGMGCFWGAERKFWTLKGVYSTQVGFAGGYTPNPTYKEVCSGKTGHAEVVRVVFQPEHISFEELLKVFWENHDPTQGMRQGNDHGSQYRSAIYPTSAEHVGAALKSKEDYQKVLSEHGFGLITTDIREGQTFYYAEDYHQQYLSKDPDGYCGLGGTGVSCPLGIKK

[15] = target: T3, Mannose-6-phosphate isomerase; assay: Confirmation of compounds inhibiting phosphomannose isomerase (PMI) via a fluorescence intensity assay using a high concentration of mannose 6-phosphate. [Related pubchem assays (depositor defined):AID1209, AID1220, AID1545, AID1553, AID1620]
Large T antigen = Large T antigen (Simian virus 40, UniProt P03070); assay type: functional, Betapolyomavirus macacae;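 note: Confirmatory-stage PubChem screen for compounds that inhibit SV40 T antigen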
[16] = target: Phosphoethanolamine/phosphocholine phosphatase (Homo sapiens, UniProt Q8TCT1); assay: SAR assay for compounds that inhibit PHOSPHO1. [Related pubchem assays (depositor defined):AID1545, AID1565, AID1574]
[17] = target: T3, Mannose-6-phosphate isomerase; assay: MPI inhibition at elevated mannose 6-phosphate – biochemical, fluorescence intensity, high mannose 6-phosphate, primary screen (AID 1220)
Phosphomannomutase 2 = Phosphomannomutase 2 (Homo sapiens, UniProt O15305); assay: Counter screen SAR assay for PMM2 inhibitors via a fluorescence intensity assay. [Related pubchem assays (depositor defined):AID1545, AID1574]
[18] = target: T3, Mannose-6-phosphate isomerase; assay: MPI enzyme activity inhibition – biochemical, fluorescence intensity, coupled assay, primary screen (AID 1209)
Hexokinase = target: T5, Hexokinase (Trypanosoma brucei, UniProt Q38C41); assay: Confirmation assay for inhibitors of Trypanosoma brucei hexokinase 1-Analogue-first series. [Related pubchem assays (depositor defined):AID1430, AID1632, AID2516, AID2560, AID2579, AID2600, AID449725, AID492951]; assay type: functional
T5 sequence (Q38C41 whole entry): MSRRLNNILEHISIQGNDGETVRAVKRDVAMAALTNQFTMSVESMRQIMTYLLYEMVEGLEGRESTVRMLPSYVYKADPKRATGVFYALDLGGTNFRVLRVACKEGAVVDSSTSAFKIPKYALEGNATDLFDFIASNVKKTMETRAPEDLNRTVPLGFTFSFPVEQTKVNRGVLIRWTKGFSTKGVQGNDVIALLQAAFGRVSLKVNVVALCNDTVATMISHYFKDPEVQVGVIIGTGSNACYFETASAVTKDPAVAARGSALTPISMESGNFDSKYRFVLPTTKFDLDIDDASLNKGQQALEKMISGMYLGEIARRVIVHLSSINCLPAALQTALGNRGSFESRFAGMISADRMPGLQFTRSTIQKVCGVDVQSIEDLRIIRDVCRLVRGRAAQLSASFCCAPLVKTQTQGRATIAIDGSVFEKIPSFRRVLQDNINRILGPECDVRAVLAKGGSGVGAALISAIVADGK

[19] = target: Type-1 angiotensin II receptor (Homo sapiens, UniProt P30556); assay: agonist activity at AGTR1 – cell-based, uHTS hits, selectivity assay for APJ receptor agonist project, dose response (AID 488865); assay type: functional;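 note: beta-arrestin recruitment to AT1 measured by enzyme fragment complementation luminescence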
Saccharomyces cerevisiae = assay: S. cerevisiae Caspase-1/ASC signal blockers IC50, NALP1 inhibitor project selectivity test (AID 488863); assay type: functional, organism-based
[20] = target: T6, Oxysterols receptor LXR-beta (Homo sapiens, UniProt P55055); assay type: functional, cell-based;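 note: Cell-based luminescence dose-response assay of agonist activity at LXR, run as a confirmatory counterscreen to a daf-12 agonist screen; HEK293 cells with Gal4-LXR fusion and GAL4-driven luciferase reporter; agonist potency from rising luciferase signal of a Gal4-LXR reporter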
T6 sequence (P55055 whole entry): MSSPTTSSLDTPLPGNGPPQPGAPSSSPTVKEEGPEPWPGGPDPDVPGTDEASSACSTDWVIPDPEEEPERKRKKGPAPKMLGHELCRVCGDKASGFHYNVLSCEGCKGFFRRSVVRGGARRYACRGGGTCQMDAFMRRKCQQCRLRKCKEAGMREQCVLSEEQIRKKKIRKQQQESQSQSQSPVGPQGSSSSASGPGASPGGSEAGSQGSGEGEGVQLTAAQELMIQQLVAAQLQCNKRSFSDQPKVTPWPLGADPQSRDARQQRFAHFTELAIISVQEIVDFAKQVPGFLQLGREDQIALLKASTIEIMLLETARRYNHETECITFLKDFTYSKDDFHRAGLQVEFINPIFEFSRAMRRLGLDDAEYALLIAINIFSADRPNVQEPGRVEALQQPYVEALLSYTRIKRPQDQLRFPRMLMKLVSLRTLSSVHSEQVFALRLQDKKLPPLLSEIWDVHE

[21] = target: NACHT, LRR and PYD domains-containing protein 1 (Homo sapiens, UniProt Q9C000); assay: NALP1 inhibitors in yeast, dose response, luminescent (AID 488860); assay type: functional
[22] = decrease of insulin promoter-GFP reporter – imaging, high-content screening, mouse beta cells (AID 1628); assay type: functional; conditions: MIN6
[23] = RanGTP/importin-beta interaction disruptors – biochemical, plate reader, dry powder, dose response (AID 493048); set-up: species or system Homo sapiens
Importin subunit alpha-1 = Importin subunit alpha-1 (Homo sapiens, UniProt P52292); assay: compounds lowering YIC probe YFP/CFP ratio – biochemical, dry powder samples, FRET, counter-screen for RanGTP-importin-beta inhibitor project, dose response (AID 493094); assay type: functional
[24] = MIN6 cell viability loss – mouse insulinoma, cytotoxicity control, dose response (AID 2122); assay type: functional;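 note: confirmatory high-throughput counterscreen run to flag cytotoxic compounds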
[25] = Trypanosoma cruzi growth suppression in host cells – NIH3T3 host cells, beta-gal luminescence, confirmation (AID 2044); assay type: functional, cell-based;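 note: intracellular parasites grown in NIH/3T3 mouse fibroblasts as host cells; luminescent beta-galactosidase reporter signal from transgenic T. cruzi replicating inside host cells; inhibitors lower the luminescence signal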
[26] = NIH3T3 cell viability loss – ATP luminescence, mouse fibroblasts, counter-screen, dose response (AID 2010); assay type: functional, cell-based;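 note: cells exposed to compound for about 90 hours before reading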
[27] = target: T7, Runt-related transcription factor 1/Core-binding factor subunit beta (Homo sapiens, UniProt Q01196+Q13951); assay: disruptors of Runt domain/CBFb-SMMHC interaction – biochemical, FRET, Cerulean-Runt, Venus-CBFb-SMMHC, uHTS, […] (AID 1434); assay type: protein assay
[28] = target: T7, Runt-related transcription factor 1/Core-binding factor subunit beta; assay: Runt domain/CBFb-SMMHC interaction disruptors – biochemical, TR-FRET (AID 1438); assay type: protein assay
[29] = target: Voltage-dependent T-type calcium channel subunit alpha-1H (Homo sapiens, UniProt O95180); assay: human CACNA1H calcium influx blockade – cell-based, synthetic library set 1, calcium flux (AID 493022); assay type: functional
[30] = target: T8, Tyrosine-protein phosphatase non-receptor type 7 (Homo sapiens, UniProt P35236); assay: redox-active compounds inhibiting HePTP phosphatase – biochemical, fluorescence, mechanism study (AID 2068); assay type: functional
T8 sequence (P35236 whole entry): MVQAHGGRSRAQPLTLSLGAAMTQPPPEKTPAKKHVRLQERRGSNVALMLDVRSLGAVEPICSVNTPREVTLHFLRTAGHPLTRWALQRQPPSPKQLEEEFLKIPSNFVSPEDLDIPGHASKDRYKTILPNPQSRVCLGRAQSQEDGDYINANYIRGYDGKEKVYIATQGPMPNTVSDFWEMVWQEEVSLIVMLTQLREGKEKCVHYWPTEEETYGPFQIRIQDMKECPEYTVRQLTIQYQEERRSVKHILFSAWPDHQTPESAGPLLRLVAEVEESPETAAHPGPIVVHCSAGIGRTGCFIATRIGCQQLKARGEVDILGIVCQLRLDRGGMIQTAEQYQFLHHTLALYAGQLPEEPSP

T7 sequence (Q01196 whole entry, the tested form may be a part): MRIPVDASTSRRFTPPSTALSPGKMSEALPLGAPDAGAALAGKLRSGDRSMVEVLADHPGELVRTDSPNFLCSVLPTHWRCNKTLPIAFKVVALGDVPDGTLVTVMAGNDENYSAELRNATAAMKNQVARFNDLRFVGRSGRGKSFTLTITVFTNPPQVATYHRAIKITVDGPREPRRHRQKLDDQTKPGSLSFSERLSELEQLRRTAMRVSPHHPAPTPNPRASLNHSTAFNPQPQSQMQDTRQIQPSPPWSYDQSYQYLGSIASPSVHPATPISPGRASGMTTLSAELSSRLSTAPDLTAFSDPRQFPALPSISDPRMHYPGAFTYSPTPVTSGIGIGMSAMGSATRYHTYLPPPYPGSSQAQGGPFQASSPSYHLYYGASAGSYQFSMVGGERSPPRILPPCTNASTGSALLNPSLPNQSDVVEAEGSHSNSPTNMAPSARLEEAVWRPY
T7 sequence (Q13951 whole entry, the tested form may be a part): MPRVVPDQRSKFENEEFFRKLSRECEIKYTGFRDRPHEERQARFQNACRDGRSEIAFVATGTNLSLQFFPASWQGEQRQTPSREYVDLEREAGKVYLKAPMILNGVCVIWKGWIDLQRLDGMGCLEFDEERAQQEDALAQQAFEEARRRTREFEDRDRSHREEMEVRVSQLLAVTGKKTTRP
Phosphoethanolamine/phosphocholine phosphatase, sequence (Q8TCT1 whole entry): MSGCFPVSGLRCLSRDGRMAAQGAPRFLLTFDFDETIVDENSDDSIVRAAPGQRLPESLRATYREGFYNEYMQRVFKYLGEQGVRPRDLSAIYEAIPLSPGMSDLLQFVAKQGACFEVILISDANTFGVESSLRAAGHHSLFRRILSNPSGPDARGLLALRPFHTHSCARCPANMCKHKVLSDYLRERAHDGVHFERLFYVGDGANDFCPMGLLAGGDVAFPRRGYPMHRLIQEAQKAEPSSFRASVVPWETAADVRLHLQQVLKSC
T1 sequence (Q00975 whole entry): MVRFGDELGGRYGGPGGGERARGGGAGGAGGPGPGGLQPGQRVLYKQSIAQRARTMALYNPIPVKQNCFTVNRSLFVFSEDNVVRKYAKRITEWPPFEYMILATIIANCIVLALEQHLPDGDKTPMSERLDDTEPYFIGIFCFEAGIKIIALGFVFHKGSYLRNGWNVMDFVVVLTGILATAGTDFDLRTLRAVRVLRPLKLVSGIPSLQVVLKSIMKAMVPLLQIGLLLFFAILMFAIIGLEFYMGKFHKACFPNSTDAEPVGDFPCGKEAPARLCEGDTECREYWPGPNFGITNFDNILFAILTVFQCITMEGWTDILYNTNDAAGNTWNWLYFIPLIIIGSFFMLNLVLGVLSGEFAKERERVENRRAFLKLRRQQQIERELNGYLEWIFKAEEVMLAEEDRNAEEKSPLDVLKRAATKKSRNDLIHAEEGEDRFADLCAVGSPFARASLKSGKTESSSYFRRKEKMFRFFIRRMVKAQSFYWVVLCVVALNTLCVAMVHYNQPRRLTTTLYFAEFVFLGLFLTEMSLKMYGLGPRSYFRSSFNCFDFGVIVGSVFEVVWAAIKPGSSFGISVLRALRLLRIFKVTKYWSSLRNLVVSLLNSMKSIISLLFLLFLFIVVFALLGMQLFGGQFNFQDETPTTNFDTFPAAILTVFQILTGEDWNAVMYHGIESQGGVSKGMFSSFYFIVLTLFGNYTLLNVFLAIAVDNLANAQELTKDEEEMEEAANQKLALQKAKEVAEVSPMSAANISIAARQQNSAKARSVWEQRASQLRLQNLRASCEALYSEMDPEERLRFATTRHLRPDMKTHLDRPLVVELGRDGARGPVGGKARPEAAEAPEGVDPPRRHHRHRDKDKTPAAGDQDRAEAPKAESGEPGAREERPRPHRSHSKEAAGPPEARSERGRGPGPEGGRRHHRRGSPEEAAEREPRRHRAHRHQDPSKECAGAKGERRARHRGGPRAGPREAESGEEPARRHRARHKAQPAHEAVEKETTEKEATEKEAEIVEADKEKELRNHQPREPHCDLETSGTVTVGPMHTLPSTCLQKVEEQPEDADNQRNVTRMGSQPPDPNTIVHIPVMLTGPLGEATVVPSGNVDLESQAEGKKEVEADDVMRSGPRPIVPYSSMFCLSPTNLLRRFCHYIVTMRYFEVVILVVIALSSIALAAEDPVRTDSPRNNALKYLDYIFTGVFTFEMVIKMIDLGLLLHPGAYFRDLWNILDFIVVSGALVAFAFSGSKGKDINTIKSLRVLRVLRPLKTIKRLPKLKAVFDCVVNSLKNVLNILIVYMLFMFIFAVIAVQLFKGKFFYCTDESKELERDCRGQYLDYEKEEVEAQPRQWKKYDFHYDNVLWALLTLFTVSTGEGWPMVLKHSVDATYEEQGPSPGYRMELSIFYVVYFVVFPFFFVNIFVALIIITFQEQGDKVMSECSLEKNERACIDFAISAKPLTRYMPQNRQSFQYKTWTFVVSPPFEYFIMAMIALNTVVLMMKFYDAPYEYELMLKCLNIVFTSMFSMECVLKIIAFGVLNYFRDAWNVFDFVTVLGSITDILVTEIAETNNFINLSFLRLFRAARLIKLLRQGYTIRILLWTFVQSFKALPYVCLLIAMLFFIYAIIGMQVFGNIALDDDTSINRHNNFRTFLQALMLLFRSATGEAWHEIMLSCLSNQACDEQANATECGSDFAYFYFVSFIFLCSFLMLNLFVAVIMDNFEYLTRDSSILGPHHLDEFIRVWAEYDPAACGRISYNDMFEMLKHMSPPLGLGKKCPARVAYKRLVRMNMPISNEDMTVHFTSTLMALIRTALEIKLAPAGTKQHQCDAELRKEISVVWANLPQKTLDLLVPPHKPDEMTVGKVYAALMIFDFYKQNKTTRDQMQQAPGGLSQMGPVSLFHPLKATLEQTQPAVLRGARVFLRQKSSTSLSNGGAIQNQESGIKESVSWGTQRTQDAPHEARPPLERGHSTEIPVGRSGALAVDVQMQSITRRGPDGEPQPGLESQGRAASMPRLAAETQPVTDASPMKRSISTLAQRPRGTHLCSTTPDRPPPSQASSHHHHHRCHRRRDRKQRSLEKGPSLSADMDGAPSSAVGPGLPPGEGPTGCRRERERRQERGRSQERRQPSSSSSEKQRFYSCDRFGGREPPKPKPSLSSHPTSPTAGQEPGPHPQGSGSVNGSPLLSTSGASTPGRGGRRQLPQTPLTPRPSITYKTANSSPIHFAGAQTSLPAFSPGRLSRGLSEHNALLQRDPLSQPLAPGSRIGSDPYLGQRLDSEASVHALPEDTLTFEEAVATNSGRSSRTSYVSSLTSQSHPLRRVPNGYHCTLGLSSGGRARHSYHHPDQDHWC
T1 sequence (Q02410 whole entry): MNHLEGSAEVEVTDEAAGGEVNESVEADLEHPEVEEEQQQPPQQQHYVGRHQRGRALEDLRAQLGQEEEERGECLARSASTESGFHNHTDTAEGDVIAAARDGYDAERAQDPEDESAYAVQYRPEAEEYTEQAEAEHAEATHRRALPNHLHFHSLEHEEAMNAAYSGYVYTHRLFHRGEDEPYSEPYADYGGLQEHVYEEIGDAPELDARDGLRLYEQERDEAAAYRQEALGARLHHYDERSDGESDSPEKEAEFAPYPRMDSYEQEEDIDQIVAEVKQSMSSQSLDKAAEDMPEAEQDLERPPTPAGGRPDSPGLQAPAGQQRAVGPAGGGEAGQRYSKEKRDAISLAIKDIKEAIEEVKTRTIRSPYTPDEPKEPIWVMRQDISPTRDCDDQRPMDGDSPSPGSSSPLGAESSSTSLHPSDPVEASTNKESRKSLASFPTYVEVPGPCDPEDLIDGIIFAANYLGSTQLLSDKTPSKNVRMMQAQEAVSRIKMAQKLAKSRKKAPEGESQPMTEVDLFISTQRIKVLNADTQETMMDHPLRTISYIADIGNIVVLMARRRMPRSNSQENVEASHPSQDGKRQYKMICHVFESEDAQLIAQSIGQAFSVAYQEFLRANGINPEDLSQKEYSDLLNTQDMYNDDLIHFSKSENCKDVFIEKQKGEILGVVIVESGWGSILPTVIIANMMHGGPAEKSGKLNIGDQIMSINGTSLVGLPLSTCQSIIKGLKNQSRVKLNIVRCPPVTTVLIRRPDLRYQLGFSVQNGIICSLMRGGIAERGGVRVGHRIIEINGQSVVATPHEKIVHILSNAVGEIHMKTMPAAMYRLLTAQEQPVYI
Phosphomannomutase 2, sequence (O15305 whole entry): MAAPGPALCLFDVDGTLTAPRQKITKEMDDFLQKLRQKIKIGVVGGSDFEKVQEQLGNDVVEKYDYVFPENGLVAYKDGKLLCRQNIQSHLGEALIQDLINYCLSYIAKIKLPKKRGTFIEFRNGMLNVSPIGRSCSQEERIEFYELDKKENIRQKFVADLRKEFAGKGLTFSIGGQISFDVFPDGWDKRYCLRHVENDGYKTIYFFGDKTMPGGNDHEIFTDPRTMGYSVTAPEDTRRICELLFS
Type-1 angiotensin II receptor, sequence (P30556 whole entry, the tested form may be a part): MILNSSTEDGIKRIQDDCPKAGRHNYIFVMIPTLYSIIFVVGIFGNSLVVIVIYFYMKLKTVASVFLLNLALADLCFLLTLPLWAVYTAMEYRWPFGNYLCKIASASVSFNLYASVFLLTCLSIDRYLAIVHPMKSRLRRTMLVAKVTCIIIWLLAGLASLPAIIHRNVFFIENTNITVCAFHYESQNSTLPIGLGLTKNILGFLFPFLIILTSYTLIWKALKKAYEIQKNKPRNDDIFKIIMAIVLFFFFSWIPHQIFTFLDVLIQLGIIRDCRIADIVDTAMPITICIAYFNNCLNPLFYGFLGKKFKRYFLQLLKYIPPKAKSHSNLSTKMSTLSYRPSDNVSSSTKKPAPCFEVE
Tumor necrosis factor, sequence (P01375 whole entry, the tested form may be a part): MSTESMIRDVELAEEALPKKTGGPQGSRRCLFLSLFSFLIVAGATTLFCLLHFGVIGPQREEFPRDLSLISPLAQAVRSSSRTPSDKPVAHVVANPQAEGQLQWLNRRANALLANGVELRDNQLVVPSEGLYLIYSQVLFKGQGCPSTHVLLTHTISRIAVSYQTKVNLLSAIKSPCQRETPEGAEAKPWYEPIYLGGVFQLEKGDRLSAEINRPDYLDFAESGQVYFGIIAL

## COc1ccc2cc3c(N)nn(C(=O)c4ccc(Cl)c([N+](=O)[O-])c4)c3nc2c1
[1]
  IC50: 16.1 µM (active)
HEK293 [2]
  IC50: 2.29 µM (active)
HEK293 [3]
  IC50: 1.71 µM (active)
HEK293 [4]
  EC50: 3.5 µM (active)
[5]
  IC50: 1.72 µM (active)
[6]
  IC50: 28.7 µM (active)
HEK293 [7]
  IC50: > 20 µM (inactive)

## O=C(CSc1nc2scc(-c3ccccc3)c2c(=O)[nH]1)Nc1ccccc1
[8]
  EC50: 0.95 µM (active)
Tumor necrosis factor
  IC50: 1.96 µM (active)
[9]
  IC50: 2.83 µM (active)

## CN(C)S(=O)(=O)c1cccc(-n2sc3ccccc3c2=O)c1
[10]
  IC50: 12.4 µM (active)
[11]
  IC50: 2.79 µM (active) and 7.06 µM (active)
[12]
  IC50: 13 µM (active)
[13]
  IC50: 9.11 µM (active)
[14]
  EC50: > 104 µM (inactive)
[15]
  IC50: 16.4 µM (active)
Large T antigen
  IC50: 13.3 µM (active)
[16]
  IC50: 495 nM (active) and 457 nM (active)
[17]
  IC50: 11.7 µM (active)
Phosphomannomutase 2
  IC50: 13.5 µM (active) and 12.9 µM (active)
[18]
  IC50: 5.25 µM (active)
Hexokinase
  IC50: 7.63 µM (active)

## NC(=NOS(=O)(=O)c1ccc2ccccc2c1)c1ccncc1
[19]
  EC50: > 100 µM (inactive)

## CSc1nnc(-c2cc3c(s2)-c2ccccc2CC3)o1
Saccharomyces cerevisiae
  IC50: > 100 µM (inactive)
[20]
  EC50: > 67.5 µM (inactive)
cells
  EC50: > 67.5 µM (inactive)
[21]
  IC50: > 100 µM (inactive)

## CCOCCCn1c(=N)c(C(=O)NCc2ccc3c(c2)OCO3)cc2c(=O)n3cccc(C)c3nc21
[22]
  IC50: 1.54 µM (active)
[23]
  AC50: 227 µM (active)
Importin subunit alpha-1
  AC50: 135 µM (active)
[24]
  IC50: 5.17 µM (active)
[25]
  EC50: 1.27 µM (active)
[26]
  EC50: > 60 µM (not active)

## COc1ccc(OC)c(S(=O)(=O)N(C(C)=O)c2ccc3oc(=O)sc3c2)c1
[27]
  IC50: > 100 µM (inactive)
[28]
  IC50: > 100 µM (inactive)

## CC(Oc1ccccc1)C(=O)Nc1nnc(-c2ccc3ccccc3c2)o1 (configuration not stated)
[29]
  EC50: 2.7 µM (active)

## O=C(Nc1ccc2nc(-c3ccco3)c(-c3ccco3)nc2c1)Nc1cccc2ccccc12
[30]
  IC50: 1.26 µM (active)
